Laboratory results published in patent publication US12251373B2, “Compounds and methods of treating retinal degeneration” (CASE WESTERN RESERVE UNIVERSITY, priority 2017, dated 2025).
pEC50: −log10 of the molar value. Where two headings read alike, the source gives them in different places.

Key:
P23H opsin = target: T1, P23H opsin (Mus musculus, UniProt P15409, P23H); assay: Immunoblot of P23H opsin glycosylation in NIH3T3 cells; type: cell-based; design: key to Improved glycosylation: n = no; y = yes; details: for Improved glycosylation: P23H opsin; for glycosylation of P23H opsin (in words): immunoblot, PNGaseF, FIG. 3A-D
T1 construct: expressed in transfected cells
Protocol: NIH3T3-(P23H-opsin/GFP) or NIH3T3-(WT-opsin/GFP) cells were seeded in a 48-well plate (Corning Costar) at 3.2×10^5 cells per well and incubated at 37° C. with 5% CO2 for 2 h. One hundred-μL of assay medium containing a compound at 5× its final concentration was added to each well. The plate was gently shaken for 5 s before further incubation at 37° C. with 5% CO2 for 24 h. The assay medium then was aspirated, and cells were lysed with 100 μL per well PBS containing 0.1% Triton X-100 and complete protease inhibitor cocktail (Roche, Basel, Switzerland) followed by sonication for 3 s. Protein concentrations were determined with the Bradford assay. For PNGase F catalyzed deglycosylation, 3 μL of PNGase F (1,500 U, NEB) was added to the cell lysate and the mixture was incubated at room temperature for 1 h before immunoblotting. For NIH3T3-(P23H-opsin/GFP) cells, 15 μg of total protein were loaded per well onto an SDS-polyacrylamide gel; whereas for NIH3T3-(WT-opsin/GFP) cells, 10 μg of total protein was loaded per well. Opsin protein was immunostained with 0.2 μg mL^−1 horseradish peroxidase-conjugated 1D4 anti-rhodopsin antibody. Band intensities were measured with ImageJ software (http://imagej.nih.gov/ij/; National the Institutes of Health, Bethesda, MD, USA) and normalized to a glyceraldehyde 3-phosphate dehydrogenase (GAPDH) loading control.

mouse P23H opsin mutant = mouse P23H opsin mutant (Mus musculus, UniProt P15409, P23H); assay: β-Gal fragment complementation assay: rescue of P23H opsin transport from ER to plasma membrane, U2OS(PLC-EA/P23H-PK) cells; type: cell-based; details: for Emax: U2OS; for dependence of activity on light exposure of cells: cells exposed to light vs dark
Source text: U2OS(PLC-EA/P23H-PK) cells. A U2OS stable cell line was generated by DiscoveRx, Inc. (Fremont, CA, USA) for the β-Gal fragment complementation assay used in the small molecule HTS for rescue of P23H opsin transport. U2OS cells that continually express P23H-PK and PLC-EA fusion proteins were generated. Briefly, this small subunit of […] (PK fragment) was fused to the C-terminal of the mouse P23H opsin mutant, while the large EA fragment, a subunit of […], was fused with PLC, a plasma membrane anchored peptide. Both constructs were subcloned by DicoveRx, Inc. and transferred into U2OS cells by viral infections. Positive clones were selected under treatment with hygromycin and geneticin.
Briefly, U2OS(PLC-EA/P23H-PK) cells were suspended in assay medium at 3×10^5 cells mL^−1. The cell suspension was dispensed into 384-well plates (Greiner Bio-one, Monroe, NC, USA) at 20 μL per well, with a Multidrop dispenser (Thermo Scientific, Waltham, MA, USA). Plates with cells then were centrifuged at 200 g for 15 s before incubation at 37° C. with 5% CO2. Plates were removed 24 h later for treatment with tested compounds. A total of 248 plates containing 79,080 compounds from three small molecule libraries were paired with an equal number of assay plates with cultured cells. Due to a limited capacity, these plates were assayed in seven batches. An average of 56.3 nL of 10 mM compound in DMSO was dispensed into each well from column 3 to 22 of paired assay plates using a 50 nL 384-pintool system, such that the final concentration of each compound was 22.52 μM on average. […] Each assay plate was shaken for 5 s before further incubation at 37° C. with 5% CO2. […] Assay plates were incubated in the dark for 60-90 min, and luminescence was read from each assay plate with an Envision microplate reader (PerkinElmer) during a 0.1 s per well integration time. The mean and s.d. of readouts in column 2 of each plate were calculated as Mean0% and SD0%, whereas the average and s.d. of readouts in column 23 were calculated as Mean100% and SD100%. Equation 1: Activity scores (%)=(RLUcp−Mean0%)/(Mean100%−Mean0%)×100%, where RLUcp is the relative luminescence unit derived for cells treated with a compound. Equation 2: Z′-factor=1-3×(SD0%+SD100%)/(Mean100%−Mean0%); Equation 3: signal-to-background (S/B) ratio=Mean100%/Mean0%. Activities of all tested compounds were registered with their compound ID by GeneData Screener (Genedata, Basel, Switzerland) and Pipeline Pilot software (Accelrys, San Diego, CA, USA). Hits, cherry-picked from a separate stock dose-dependent activity test, were selected with an activity score cutoff at 20%. Activity of each hit was tested again with the β-Gal fragment complementation assay in a 10-dose series with each dose tested in triplicate. The 10 doses tested were 80, 40, 20, 10, 5, 2.5, 1.25, 0.625, 0.313, and 0.156 μM. Dose-dependent curves of each hit compound were fitted with GeneData and Origin software.
Detailed synthetic steps are described in FIG. 18. […] YC-002-YC-021 were purchased from commercial vendors including Enamine LLC (Monmouth Jct., NJ, USA), Matrix Scientific (Columbia, SC, USA) and Tokyo Chemical Industry Co., Ltd. (Portland, OR, USA). […] Activities of YC compounds were tested with the β-Gal fragment complementation assay, as described in a prior section. All YC compounds were tested at 10 doses, each in triplicate: 80, 40, 20, 10, 5, 2.5, 1.25, 0.625, 0.313, and 0.156 μM.

[1] = Table 1, scores relative to 9-cis-retinal, read-out: β-Gal fragment complementation assay Activity score (%) EC50
[2] = Table 1, experimental maximum, read-out: β-Gal fragment complementation assay Activity score (%) Max (Exp)
[3] = Table 1, fitted maximum, read-out: β-Gal fragment complementation assay Activity score (%) Max (fit)

Row | Improved glycosylation (P23H opsin) | glycosylation of P23H opsin (in words) (P23H opsin) | activity in rescuing P23H opsin transport (in words) (mouse P23H opsin mutant) | pEC50 (mouse P23H opsin mutant; [1]) | Emax (mouse P23H opsin mutant; [2]) [%] | Emax (mouse P23H opsin mutant; [3]) [%] | SMILES | time to maximum activity (mouse P23H opsin mutant; FIG. 1F, 40 μM YC-001) [h] | pEC50 (mouse P23H opsin mutant; HTS hit confirmation, FIG. 1E, read-out: potency) | pEC50 (mouse P23H opsin mutant; Table 5, more than one site modified, read-out: Potency) | Emax (mouse P23H opsin mutant; read-out: Efficacy (%)) [%] | effect of co-treatment with scriptaid on P23H opsin transport (mouse P23H opsin mutant; YC-001 and scriptaid co-treatment) | dependence of activity on light exposure of cells (mouse P23H opsin mutant) | effect of co-treatment with 9-cis-retinal (mouse P23H opsin mutant; with 5 μM 9-cis-retinal, FIG. 1G)
1 | n | does not affect the glycosylation | strong activity | 5.51 | 98 | 98.2 | O=C(CCCCCN1C(=O)c2cccc3cccc(c23)C1=O)NO [Scriptaid, reference compound] |  |  |  |  |  |  | 
2 | y | improvement of glycosylation |  | 5.57 | 123 | 159 | CC1=C(/C=C/C(C)=C\C=C\C(C)=C\C=O)C(C)(C)CCC1 [9-cis-retinal, reference compound] |  |  |  |  |  | required that cells be incubated in the dark | 

Row | SMILES | Improved glycosylation (P23H opsin) | glycosylation of P23H opsin (in words) (P23H opsin) | activity in rescuing P23H opsin transport (in words) (mouse P23H opsin mutant) | pEC50 (mouse P23H opsin mutant; [1]) | Emax (mouse P23H opsin mutant; [2]) [%] | Emax (mouse P23H opsin mutant; [3]) [%] | time to maximum activity (mouse P23H opsin mutant; FIG. 1F, 40 μM YC-001) [h] | pEC50 (mouse P23H opsin mutant; HTS hit confirmation, FIG. 1E, read-out: potency) | pEC50 (mouse P23H opsin mutant; Table 5, more than one site modified, read-out: Potency) | Emax (mouse P23H opsin mutant; read-out: Efficacy (%)) [%] | effect of co-treatment with scriptaid on P23H opsin transport (mouse P23H opsin mutant; YC-001 and scriptaid co-treatment) | dependence of activity on light exposure of cells (mouse P23H opsin mutant) | effect of co-treatment with 9-cis-retinal (mouse P23H opsin mutant; with 5 μM 9-cis-retinal, FIG. 1G)
3 | O=C1OCC(c2ccc(Cl)s2)=C1c1cccs1 [YC-001] | y | improvement of glycosylation |  | 5.06 | 310 | 310 | ≤ 15 | 5.11 | 5.08 | 248 | synergistic effect | not affected | No additive effect
